This is an account of results in PubChem BioAssay (NCI).

Test systems include UACC-62 melanoma; OVCAR-3 ovarian; KM12 colon; CAKI-1 renal; SN12C renal; SK-OV-3 ovarian; EKVX NSCLC; MOLT-4 leukemia; HT29 colon; RXF 393 renal.
What all share (test): growth of human tumour cells (NCI), 48 h

Each structure is given as a SMILES string.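 Test compounds were applied to cells in 96-well plates for 48 hours at 5 doses. At the GI50, growth is halved. TGI is the concentration that stops growth completely.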 Some results are limits rather than exact numbers.

For the compound `COc1ccc(Nc2cc(C)nc(NCc3ccccc3)n2)cc1`, the GI50 with UACC-62 melanoma was 2.84 µM; in the experiment with OVCAR-3 ovarian it was 7.27 µM; in the experiment with KM12 colon it was 6.2 µM; in the experiment with CAKI-1 renal, 3.9 µM; in the experiment on SN12C renal it was 5.28 µM; with SK-OV-3 ovarian it was 8.84 µM. The GI50 is 3.3 µM with EKVX NSCLC, 5.5 µM in the experiment with MOLT-4 leukemia, 2.81 µM with HT29 colon and 3.07 µM with RXF 393 renal. Further, the TGI with UACC-62 melanoma was 14.4 µM; in the experiment on OVCAR-3 ovarian, 24.5 µM; with KM12 colon, 21.9 µM; with CAKI-1 renal, 17.2 µM; in the experiment with SN12C renal, 20.4 µM; with SK-OV-3 ovarian it was 23.8 µM. Further, the TGI with EKVX NSCLC turned out to be 18.6 µM; in the experiment with MOLT-4 leukemia, 26.9 µM; with HT29 colon, 12.7 µM; in the experiment on RXF 393 renal, 14.4 µM.
For `O=C(OC1CCC2OOC1O2)c1ccc([N+](=O)[O-])cc1` (stereo not given), the TGI in the experiment with UACC-62 melanoma, in the experiment on OVCAR-3 ovarian, with KM12 colon, in the experiment with CAKI-1 renal, with SN12C renal and in the experiment with SK-OV-3 ovarian was more than 100 µM each time. Also, the TGI in the experiment on EKVX NSCLC, with MOLT-4 leukemia, in the experiment on HT29 colon and in the experiment with RXF 393 renal was more than 100 µM each time.
On to `Cc1ccc(-c2cc3c4c(nc5ccccc53)C(=O)c3cccnc3-c4n2)cc1`, for which the GI50 in the experiment with UACC-62 melanoma was 16 µM; with OVCAR-3 ovarian, 1.85 µM; with KM12 colon, 6.46 µM; in the experiment on CAKI-1 renal it was 29.7 µM; in the experiment on SN12C renal it was 14.4 µM; in the experiment on SK-OV-3 ovarian it was 34.7 µM. The GI50 with EKVX NSCLC was 23.4 µM; in the experiment with MOLT-4 leukemia, 0.583 µM; in the experiment on HT29 colon it was 8.75 µM; in the experiment on RXF 393 renal it was 9.58 µM. The TGI in the experiment with UACC-62 melanoma is 31.1 µM; in the experiment on OVCAR-3 ovarian, more than 50.1 µM; in the experiment on KM12 colon, 25.7 µM; in the experiment with CAKI-1 renal it was more than 100 µM; in the experiment with SN12C renal, 30 µM; with SK-OV-3 ovarian, more than 94.4 µM. Further, the TGI in the experiment on EKVX NSCLC is 59.1 µM; in the experiment on MOLT-4 leukemia it was more than 100 µM; in the experiment on HT29 colon it was 22.8 µM; in the experiment with RXF 393 renal it was more than 100 µM.
For `CN1CCC2(CC1)NC(=O)c1c(c3ccc(Cl)c(Cl)c3n1C)C2C#N` (stereo not given), the GI50 with UACC-62 melanoma was 1.66 µM; with OVCAR-3 ovarian, 5.32 µM; with KM12 colon, 3.84 µM; in the experiment with CAKI-1 renal it was 4.31 µM; in the experiment with SN12C renal, 5.82 µM; with SK-OV-3 ovarian it was 14.9 µM. Moreover, the GI50 in the experiment with EKVX NSCLC is 12.4 µM; in the experiment with MOLT-4 leukemia it was 4.52 µM; in the experiment with HT29 colon, 3.95 µM; with RXF 393 renal, 2.27 µM. For the same compound, the TGI with UACC-62 melanoma is 3.22 µM; in the experiment on OVCAR-3 ovarian, 12.3 µM; in the experiment on KM12 colon it was 8.55 µM; in the experiment on CAKI-1 renal, 21.3 µM; in the experiment with SN12C renal, 31.2 µM; in the experiment with SK-OV-3 ovarian it was 32 µM. For the same compound, the TGI in the experiment on EKVX NSCLC is 41.1 µM; in the experiment on MOLT-4 leukemia it was more than 28 µM; with HT29 colon it was 23.6 µM; with RXF 393 renal, 7.3 µM.
In the case of `NC1CCCCC1N.O=[Se]([O-])[O-].[Pt+4]` (stereo not given), the GI50 in the experiment with UACC-62 melanoma was 1.33 µM; in the experiment on OVCAR-3 ovarian, 17 µM; in the experiment on KM12 colon, 2.51 µM; in the experiment with CAKI-1 renal, 1.08 µM; in the experiment on SN12C renal, 1.67 µM; in the experiment on SK-OV-3 ovarian, 27.8 µM. The GI50 in the experiment with EKVX NSCLC was more than 35.2 µM; in the experiment on MOLT-4 leukemia it was 0.0775 µM; in the experiment on HT29 colon, 0.169 µM; in the experiment with RXF 393 renal, 7.33 µM. Further, the TGI in the experiment on UACC-62 melanoma was more than 41.8 µM; in the experiment on OVCAR-3 ovarian, more than 100 µM; in the experiment on KM12 colon, more than 100 µM; with CAKI-1 renal it was 45.3 µM; in the experiment with SN12C renal, more than 100 µM; in the experiment on SK-OV-3 ovarian, more than 100 µM. The TGI in the experiment on EKVX NSCLC was more than 100 µM; with MOLT-4 leukemia it was more than 100 µM; in the experiment on HT29 colon it was 17.5 µM; in the experiment with RXF 393 renal, 57.1 µM.
Consider `C#CCN(Cc1nc2cc(C(F)(F)F)ccc2nc1-c1ccccc1)c1ccc(C)cc1`, for which the GI50 is 7.32 µM in the experiment with UACC-62 melanoma; 3.7 µM in the experiment with OVCAR-3 ovarian; 9.94 µM in the experiment on KM12 colon; 8.15 µM in the experiment on CAKI-1 renal; more than 28.2 µM in the experiment on SN12C renal; 8.56 µM with SK-OV-3 ovarian. For the same compound, the GI50 is 29.1 µM in the experiment with EKVX NSCLC, 3.1 µM in the experiment with MOLT-4 leukemia, 12.4 µM in the experiment on HT29 colon and 4.18 µM with RXF 393 renal. The TGI in the experiment on UACC-62 melanoma was 27.9 µM; in the experiment on OVCAR-3 ovarian it was 16.8 µM; in the experiment with KM12 colon, more than 24.6 µM; in the experiment with CAKI-1 renal it was more than 43.4 µM; with SN12C renal, more than 59.9 µM; in the experiment with SK-OV-3 ovarian it was more than 26.4 µM. Besides, the TGI with EKVX NSCLC was more than 62.1 µM; with MOLT-4 leukemia it was more than 79.9 µM; with HT29 colon, more than 32 µM; in the experiment on RXF 393 renal it was 28 µM.
In the case of `CC[C@@H](C(=O)[C@H](C)[C@H](O)[C@@H](C)[C@H]1O[C@H]([C@@H](CC)C(=O)N(CC)CC)CC[C@H]1C)C1O[C@]2(C=C[C@@H](O)[C@]3(CC[C@@](C)([C@H]4CC[C@](O)(CC)[C@H](C)O4)O3)O2)[C@H](C)C[C@@H]1C` (stereo not given in full), the GI50 in the experiment with UACC-62 melanoma is 2.43 µM; in the experiment on OVCAR-3 ovarian, 2.64 µM; with KM12 colon, 2.53 µM; with CAKI-1 renal, 2.12 µM; in the experiment with SN12C renal, 2.75 µM; with SK-OV-3 ovarian, 3.06 µM. The GI50 in the experiment with EKVX NSCLC was 2.58 µM; in the experiment on MOLT-4 leukemia it was 2.55 µM; in the experiment on HT29 colon it was 3.34 µM; in the experiment with RXF 393 renal, 2.06 µM. Moreover, the TGI was 10.8 µM with UACC-62 melanoma; 8.16 µM in the experiment on OVCAR-3 ovarian; 7.03 µM with KM12 colon; 8.06 µM in the experiment on CAKI-1 renal; 10.1 µM with SN12C renal; 10.1 µM in the experiment with SK-OV-3 ovarian. The TGI with EKVX NSCLC turned out to be 11.4 µM; with MOLT-4 leukemia it was 7.05 µM; in the experiment on HT29 colon, 15.6 µM; in the experiment on RXF 393 renal, 5.87 µM.
Turning to `CC1(C)CC[C@]2(C(=O)O)CC[C@]3(C)C(=CC[C@@H]4[C@@]5(C)C[C@H](O)[C@H](O)[C@@](C)(C(=O)O)[C@@H]5CC[C@]43C)[C@@H]2C1`, the TGI in the experiment with UACC-62 melanoma is more than 94.2 µM; in the experiment on OVCAR-3 ovarian, more than 100 µM; in the experiment on KM12 colon, more than 100 µM; in the experiment with CAKI-1 renal, more than 100 µM; in the experiment with SN12C renal, more than 100 µM; with SK-OV-3 ovarian, more than 100 µM. Besides, the TGI in the experiment with EKVX NSCLC, with MOLT-4 leukemia, in the experiment on HT29 colon and in the experiment with RXF 393 renal was more than 100 µM in each case.
